{
  "source": "patent US9546150B2",
  "about": "“Substituted quinazolin-4-ones for inhibiting ubiquitin specific protease 7” (HYBRIGENICS SA, priority 2011, dated 2017)",
  "assay_type_in_all_cases": "biochemical",
  "key": {"USP7 [1]": {"molecular_target": "T1, USP7 (Homo sapiens, UniProt Q93009)", "T1 sequence (Q93009 whole entry)": "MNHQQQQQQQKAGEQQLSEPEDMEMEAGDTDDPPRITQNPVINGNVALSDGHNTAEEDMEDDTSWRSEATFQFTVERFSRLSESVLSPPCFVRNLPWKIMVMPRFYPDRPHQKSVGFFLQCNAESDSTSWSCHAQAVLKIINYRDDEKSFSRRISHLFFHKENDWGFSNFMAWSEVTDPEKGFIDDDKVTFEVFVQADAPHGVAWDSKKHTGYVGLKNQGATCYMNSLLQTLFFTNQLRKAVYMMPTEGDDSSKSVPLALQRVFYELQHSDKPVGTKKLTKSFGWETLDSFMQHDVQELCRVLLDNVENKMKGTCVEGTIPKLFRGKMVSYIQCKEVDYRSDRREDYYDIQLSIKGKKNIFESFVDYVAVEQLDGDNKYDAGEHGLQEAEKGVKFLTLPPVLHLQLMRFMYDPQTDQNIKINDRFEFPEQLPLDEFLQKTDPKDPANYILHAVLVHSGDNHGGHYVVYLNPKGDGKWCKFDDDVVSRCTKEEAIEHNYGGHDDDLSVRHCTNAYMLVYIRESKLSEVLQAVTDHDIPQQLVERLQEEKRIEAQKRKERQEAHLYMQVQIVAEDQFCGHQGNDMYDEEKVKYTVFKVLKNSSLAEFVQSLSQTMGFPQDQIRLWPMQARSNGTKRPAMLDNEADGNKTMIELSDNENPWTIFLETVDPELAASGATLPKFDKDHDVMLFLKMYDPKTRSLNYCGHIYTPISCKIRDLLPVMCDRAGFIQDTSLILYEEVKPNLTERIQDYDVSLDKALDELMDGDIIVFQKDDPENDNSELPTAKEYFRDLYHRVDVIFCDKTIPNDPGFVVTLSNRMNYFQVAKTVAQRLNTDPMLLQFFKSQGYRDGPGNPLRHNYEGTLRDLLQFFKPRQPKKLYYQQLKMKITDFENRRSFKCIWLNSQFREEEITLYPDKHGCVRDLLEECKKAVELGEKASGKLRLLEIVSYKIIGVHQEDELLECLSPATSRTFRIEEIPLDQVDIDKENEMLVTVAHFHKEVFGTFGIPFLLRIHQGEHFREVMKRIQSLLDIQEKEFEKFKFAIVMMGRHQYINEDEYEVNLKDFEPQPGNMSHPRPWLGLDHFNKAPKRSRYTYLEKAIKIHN", "experiment": "USP7 activity assay, Ub-AMC substrate", "set-up": "Full-length wild-type human USP7 and its catalytic mutant; His tag (pFastBac-HT vector) (N); made in house; host or cells: Spodoptera frugiperda Sf9 (or High Five) insect cells, baculovirus", "settings": "UbAMC substrate 300 nM, USP7 100 pM", "procedure": "(§1) Bacmid DNA was prepared by an alkaline lysis procedure. The integrity of the bacmid minipreps and their orientation were checked by PCR, using generic and specific primers. Sf9 insect cells were cultured in InsectXpress medium (Cambrex) at 27° C. and transfected with the corresponding bacmid, using GeneShuttle 40 (Q-BIOgen). Viruses were recovered in the supernatant 72 h after transfection. Viruses were amplified by infecting insect cells (Sf9 or High Five cells; invitrogen) in 50 ml InsectXpress medium in a 150 cm^2 cell culture flask with 500 μl of the supernatant from transfected Sf9 cells. Following the second round of amplification, infected cells were recovered by rapid SDS lysis, boiled for 5 min at 100° C., sonicated briefly and centrifuged for 20 min at 14,000 g.\nUSP7 was diluted in USP buffer (50 mM Tris HCl; 0.5 mM EDTA (Ethylenediaminetetraacetic acid); 5 mM DTT; 0.01% Triton X-100; Bovine Serum Albumin 0.05 mg·ml^−1 pH7.6). Compounds stocks (10 mM) were stored at −20° C. in DMSO.\nReactions were performed as duplicates in Black 384 well plates (small volumes microplates; Greiner; 10 μl final reaction volume). […] The concentrations of the enzyme (USP7) in specificity assays was 100 pM. The concentrations were determined in order to perform specificity assays under initial velocities at fixed substrate concentration. Compounds were pre-incubated with enzymes for 30 minutes at 25° C. Reactions were initiated by addition of substrate to the plates containing the enzymes (+/− compounds) diluted in assay buffer. Reactions were incubated for 60 minutes at 37° C. Reactions were stopped by adding acetic acid (100 mM final). Readings were performed on a Pherastar Fluorescent Reader (BMG). λ Emission […]."}, "USP5": {"molecular_target": "T2, USP5 (Homo sapiens, UniProt P45974)", "T2 sequence (P45974 1-858)": "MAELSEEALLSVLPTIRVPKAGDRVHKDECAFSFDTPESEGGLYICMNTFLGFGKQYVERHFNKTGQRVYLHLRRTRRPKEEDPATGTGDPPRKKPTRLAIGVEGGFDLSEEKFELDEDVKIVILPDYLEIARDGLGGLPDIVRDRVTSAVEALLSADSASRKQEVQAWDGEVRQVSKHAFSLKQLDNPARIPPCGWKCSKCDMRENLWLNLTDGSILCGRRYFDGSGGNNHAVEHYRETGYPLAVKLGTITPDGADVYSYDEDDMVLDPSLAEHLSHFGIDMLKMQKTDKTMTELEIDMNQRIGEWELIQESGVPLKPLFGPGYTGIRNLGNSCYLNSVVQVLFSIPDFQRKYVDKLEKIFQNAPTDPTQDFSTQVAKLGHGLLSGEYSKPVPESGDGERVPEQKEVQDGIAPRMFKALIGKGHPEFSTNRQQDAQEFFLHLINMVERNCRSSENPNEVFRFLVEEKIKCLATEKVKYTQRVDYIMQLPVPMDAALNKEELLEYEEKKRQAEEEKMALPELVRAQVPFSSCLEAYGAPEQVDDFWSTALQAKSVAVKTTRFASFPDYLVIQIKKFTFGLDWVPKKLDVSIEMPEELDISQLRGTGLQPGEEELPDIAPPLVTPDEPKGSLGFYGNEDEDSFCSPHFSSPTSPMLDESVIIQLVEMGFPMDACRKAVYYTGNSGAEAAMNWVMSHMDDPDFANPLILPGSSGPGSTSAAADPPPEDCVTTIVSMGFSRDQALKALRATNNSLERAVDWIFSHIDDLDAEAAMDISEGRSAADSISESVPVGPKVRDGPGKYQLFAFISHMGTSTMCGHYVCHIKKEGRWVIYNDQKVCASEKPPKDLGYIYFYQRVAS", "experiment": "USP5 activity assay, Ub-AMC substrate", "settings": "UbAMC substrate 300 nM, USP5 300 pM", "procedure": "USP5 was diluted in USP buffer (50 mM Tris HCl; 0.5 mM EDTA; 5 mM DTT; 0.01% Triton X-100; Bovine Serum Albumin 0.05 mg·ml^−1 pH 7.6). Compounds stocks (100 mM) were stored at −20° C. in DMSO.\nReactions were performed as duplicates in Black 384 well plates (small volume microplates; Greiner; 10 μl final reaction volume). The substrate concentration for USP5 was 300 nM Ub-AMC (Boston Biochem). The concentrations of the enzyme (USP5) in specificity assays was 300 pM. The concentrations were determined in order to perform specificity assays under initial velocities at fixed substrate concentration. Compounds were pre-incubated with enzymes for 30 minutes at 25° C. Reactions were initiated by addition of substrate to the plates containing the enzymes (+/− compounds) diluted in assay buffer. Reactions were incubated for 60 minutes at 37° C. Reactions were stopped by adding acetic acid (100 mM final). Readings were performed on a Pherastar Fluorescent Reader (BMG). λ Emission 380 nm; λ Excitation=460 nm."}, "USP7 [2]": {"molecular_target": "T1, USP7", "experiment": "GST-Ub52-Flag HTRF deubiquitinating enzyme assay, USP7", "set-up": "Full-length wild-type human USP7 and its catalytic mutant; His tag (pFastBac-HT vector) (N); made in house; host or cells: Spodoptera frugiperda Sf9 (or High Five) insect cells, baculovirus", "settings": "GST-Ub52-Flag substrate, USP7 200 pM", "procedure": "as §1\nFlow Through was recovered."}},
  "data": [
    {"smiles": "O=C(CCc1ccccc1)N1CCC(O)(Cn2cnc3ccccc3c2=O)CC1", "note": "[Example 1, 3-{[4-hydroxy-1-(3-phenylpropanoyl)piperidin-4-yl]methyl}-3,4-dihydroquinazolin-4-one]", "values": [
      {"measurement": "IC50", "setting": "USP7 [1]", "result": 69, "unit": "µM"},
      {"measurement": "IC50", "setting": "USP5", "result": "> 200", "unit": "µM"},
      {"measurement": "IC50", "setting": "USP7 [2]", "result": 74, "unit": "µM"}
    ]},
    {"smiles": "O=C(CCc1ccccc1)N1CCC(O)(Cn2cnc3cc(Cl)ccc3c2=O)CC1", "note": "[Example 2, 7-chloro-3-{[4-hydroxy-1-(3-phenylpropanoyl)piperidin-4-yl]methyl}-3,4-dihydroquinazolin-4-one]", "values": [
      {"measurement": "IC50", "setting": "USP7 [1]", "result": 33, "unit": "µM"},
      {"measurement": "IC50", "setting": "USP7 [2]", "result": 77, "unit": "µM"}
    ]},
    {"smiles": "O=C(CCC1CCCC1)N1CCC(O)(Cn2cnc3ccccc3c2=O)CC1", "note": "[Example 3, 3-{[1-(3-cyclopentylpropanoyl)-4-hydroxypiperidin-4-yl]methyl}-3,4-dihydroquinazolin-4-one]", "values": [
      {"measurement": "IC50", "setting": "USP7 [1]", "result": 100, "unit": "µM"},
      {"measurement": "IC50", "setting": "USP5", "result": "> 200", "unit": "µM"},
      {"measurement": "IC50", "setting": "USP7 [2]", "result": 175, "unit": "µM"}
    ]},
    {"smiles": "O=C(CCC1CCCC1)N1CCC(O)(Cn2cnc3cc(Cl)ccc3c2=O)CC1", "note": "[Example 4, 7-chloro-3-{[1-(3-cyclopentylpropanoyl)-4-hydroxypiperidin-4-yl]methyl}-3,4-dihydroquinazolin-4-one]", "values": [
      {"measurement": "IC50", "setting": "USP7 [1]", "result": 54, "unit": "µM"},
      {"measurement": "IC50", "setting": "USP5", "result": "> 200", "unit": "µM"},
      {"measurement": "IC50", "setting": "USP7 [2]", "result": 173, "unit": "µM"}
    ]},
    {"smiles": "CC(Cc1cccs1)C(=O)N1CCC(O)(Cn2cnc3ccccc3c2=O)CC1", "note": "(stereo not drawn) [Example 5, 3-({4-hydroxy-1-[2-methyl-3-(thiophen-2-yl)propanoyl]piperidin-4-yl}methyl)-3,4-dihydroquinazolin-4-one]", "values": [
      {"measurement": "IC50", "setting": "USP7 [1]", "result": 37, "unit": "µM"},
      {"measurement": "IC50", "setting": "USP5", "result": "> 200", "unit": "µM"},
      {"measurement": "IC50", "setting": "USP7 [2]", "result": 36, "unit": "µM"}
    ]},
    {"smiles": "CC(C)C(=O)N1CCC(O)(Cn2cnc3ccccc3c2=O)CC1", "note": "[Example 6, 3-{[4-hydroxy-1-(2-methylpropanoyl)piperidin-4-yl]methyl}-3,4-dihydroquinazolin-4-one]", "values": [
      {"measurement": "IC50", "setting": "USP7 [1]", "result": 156, "unit": "µM"},
      {"measurement": "IC50", "setting": "USP5", "result": "> 200", "unit": "µM"},
      {"measurement": "IC50", "setting": "USP7 [2]", "result": "> 200", "unit": "µM"}
    ]},
    {"smiles": "COc1cc2ncn(CC3(O)CCN(C(=O)C(C)C)CC3)c(=O)c2cc1OC", "note": "[Example 7, 3-{[4-hydroxy-1-(2-methylpropanoyl)piperidin-4-yl]methyl}-6,7-dimethoxy-3,4-dihydroquinazolin-4-one]", "values": [
      {"measurement": "IC50", "setting": "USP7 [1]", "result": 90, "unit": "µM"},
      {"measurement": "IC50", "setting": "USP5", "result": "> 200", "unit": "µM"},
      {"measurement": "IC50", "setting": "USP7 [2]", "result": 174, "unit": "µM"}
    ]},
    {"smiles": "CCC(CC)C(=O)N1CCC(O)(Cn2cnc3cc(Cl)ccc3c2=O)CC1", "note": "[Example 9, 7-chloro-3-{[1-(2-ethylbutanoyl)-4-hydroxypiperidin-4-yl]methyl}-3,4-dihydroquinazolin-4-one]", "values": [
      {"measurement": "IC50", "setting": "USP7 [1]", "result": 155, "unit": "µM"},
      {"measurement": "IC50", "setting": "USP5", "result": "> 200", "unit": "µM"},
      {"measurement": "IC50", "setting": "USP7 [2]", "result": 214, "unit": "µM"}
    ]},
    {"smiles": "COc1ccccc1CCC(=O)N1CCC(O)(Cn2cnc3ccccc3c2=O)CC1", "note": "[Example 10, 3-({4-hydroxy-1-[3-(2-methoxyphenyl)propanoyl]piperidin-4-yl}methyl)-3,4-dihydroquinazolin-4-one]", "values": [
      {"measurement": "IC50", "setting": "USP7 [1]", "result": 261, "unit": "µM"},
      {"measurement": "IC50", "setting": "USP5", "result": "> 200", "unit": "µM"},
      {"measurement": "IC50", "setting": "USP7 [2]", "result": "> 200", "unit": "µM"}
    ]},
    {"smiles": "CC(Cc1cccs1)C(=O)N1CCC(O)(Cn2cnc3cc(Cl)ccc3c2=O)CC1", "note": "(stereo not drawn) [Example 11, 7-chloro-3-({4-hydroxy-1-[2-methyl-3-(thiophen-2-yl)propanoyl]piperidin-4-yl}methyl)-3,4-dihydroquinazolin-4-one]", "values": [
      {"measurement": "IC50", "setting": "USP7 [1]", "result": 40, "unit": "µM"},
      {"measurement": "IC50", "setting": "USP5", "result": "> 200", "unit": "µM"},
      {"measurement": "IC50", "setting": "USP7 [2]", "result": 33, "unit": "µM"}
    ]},
    {"smiles": "O=C(CCc1cccs1)N1CCC(O)(Cn2cnc3ccccc3c2=O)CC1", "note": "[Example 12, 3-({4-hydroxy-1-[3-(thiophen-2-yl)propanoyl]piperidin-4-yl}methyl)-3,4-dihydroquinazolin-4-one]", "values": [
      {"measurement": "IC50", "setting": "USP7 [1]", "result": 70, "unit": "µM"},
      {"measurement": "IC50", "setting": "USP5", "result": "> 200", "unit": "µM"},
      {"measurement": "IC50", "setting": "USP7 [2]", "result": 42, "unit": "µM"}
    ]},
    {"smiles": "CC(Cc1ccccc1)C(=O)N1CCC(O)(Cn2cnc3ccccc3c2=O)CC1", "note": "(stereo not drawn) [Example 13, 3-{[1-(2-benzylpropanoyl)-4-hydroxypiperidin-4-yl]methyl}-3,4-dihydroquinazolin-4-one]", "values": [
      {"measurement": "IC50", "setting": "USP5", "result": "> 200", "unit": "µM"}
    ]},
    {"smiles": "CC(Cc1ccccc1)C(=O)N1CCC(O)(Cn2cnc3cc(Cl)ccc3c2=O)CC1", "note": "(stereo not drawn) [Example 14, 3-{[1-(2-benzylpropanoyl)-4-hydroxypiperidin-4-yl]methyl}-7-chloro-3,4-dihydroquinazolin-4-one]", "values": [
      {"measurement": "IC50", "setting": "USP7 [1]", "result": 24, "unit": "µM"},
      {"measurement": "IC50", "setting": "USP5", "result": "> 200", "unit": "µM"},
      {"measurement": "IC50", "setting": "USP7 [2]", "result": 29, "unit": "µM"}
    ]}
  ]
}
